Measurements published in patent US20030162765A1, “2-amino-6-(2-substituted-4-phenoxy)-substituted-pyridines” (Pfizer Inc., priority 1997, published 2003).
Structures can show the parent of a compound that is named as a salt.

SMILES | melting point [°C]
COc1cc(-c2cccc(N)n2)ccc1OCCN(C)C (as salt: hydrochloride) [Example 6, 6-[4-(2-Dimethylamino-ethoxy)-3-methoxy-phenyl]-pyridin-2-ylamine] | 225 to 228
COc1cc(-c2cccc(N)n2)ccc1OCCN1CCN(CCc2ccccc2)CC1 (as salt: hydrochloride) [Example 9, 6-{3-methoxy-4-[2-(4-phenethyl-piperazin-1-yl)-ethoxy]-phenyl}-pyridin-2-ylamine] | 167 to 182

Continued, values first:

melting point [°C] | SMILES
210 to 216 | CCOc1cc(-c2cccc(N)n2)ccc1OCCN(C)C (as salt: hydrochloride) [Example 12, 6-[4-(2-Dimethylamino-ethoxy)-3-ethoxy-phenyl]-pyridin-2-ylamine]
205 to 209 | Cc1cc(-c2cccc(N)n2)c(C)cc1OCCN(C)C (as salt: hydrochloride) [Example 110, 6-[4-(2-dimethylamino-ethoxy)-2,5-dimethyl-phenyl]-pyridin-2-ylamine]
> 220 | Cc1cc(-c2cccc(N)n2)c(C)cc1OCCN1CCN(CCc2ccccc2)CC1 (as salt: hydrochloride) [Example 111, 6-[4-(2-(4-Phenethylpiperazin-1-yl)-ethoxy)-2,5-dimethyl-phenyl]-pyridin-2-ylamine]
